In assay [1] the test system is Alternaria solani. The assay is described as follows: Spore germination test. The class given is cell-based. The settings on record: AS, 48 hours. Summed up: (§1)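 Compound in acetone was mixed into water agar at final 40, 10, 2.5 and 1 ppm and poured into quadrant dishes. Quadrants received spore suspension, while Erysiphe polygoni and Uromyces phaseoli spores were brushed on from infected leaves. After 48 h at 24 °C, the percentage of germinated spores was converted to a germination rating.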

The test system of assay [2] is Botrytis cinerea. The assay is described as follows: Spore germination test. It counts as cell-based. The following applies: BC, 48 hours. Summed up:
as §1

Regarding `Cc1ccc(Cl)c(Oc2nsnc(Cl)c2=O)c1` [Compound 56, 3-chloro-5-[(2-chloro-5-methyl)phenoxy]-4H--1,2,6-thiadiazin-4-one], the “Spore Germination Rating” value in assay [1] (1.0 ppm) is recorded as 4 (80-100); in assay [1] (2.5 ppm), 3 (60-80); in assay [1] (10 ppm) it was 0 (0-10); in assay [1] (40 ppm) it was 0 (0-10); in assay [2] (1.0 ppm) it was 4 (80-100); in assay [2] (2.5 ppm), 0 (0-10). For the same molecule, the “Spore Germination Rating” value in assay [2] (10 ppm) and in assay [2] (40 ppm) was 0 (0-10) each time.

Consider `Cc1ccc(Oc2nsnc(Cl)c2=O)c(Br)c1` [Compound 57, 3-[(2-bromo-4-methyl)-phenoxy]-5-chloro-4H--1,2,6-thiadiazin-4-one], for which the “Spore Germination Rating” value is on record as 4 (80-100) in assay [1] (1.0 ppm); 2 (40-60) in assay [1] (2.5 ppm); 0 (0-10) in assay [1] (10 ppm); 0 (0-10) in assay [1] (40 ppm); 3 (60-80) in assay [2] (1.0 ppm); 1 (10-40) in assay [2] (2.5 ppm). For the same molecule, the “Spore Germination Rating” value in assay [2] (10 ppm) and in assay [2] (40 ppm) was 0 (0-10) each time.

For `Cc1cc(Cl)c(Oc2nsnc(Cl)c2=O)cc1C` [Compound 58, 3-chloro-5-[(2-chloro-4,5-dimethyl)phenoxy]-4H--1,2,6-thiadiazin-4-one], the “Spore Germination Rating” value in assay [1] (1.0 ppm) is given as 4 (80-100); in assay [1] (2.5 ppm), 3 (60-80); in assay [1] (10 ppm), 0 (0-10); in assay [1] (40 ppm), 0 (0-10); in assay [2] (1.0 ppm), 3 (60-80); in assay [2] (2.5 ppm), 0 (0-10). The “Spore Germination Rating” value in assay [2] (10 ppm) and in assay [2] (40 ppm) was 0 (0-10) in each case.

With `Cc1cc(Oc2nsnc(Cl)c2=O)cc(C)c1Cl` [Compound 59, 3-chloro-5-[(4-chloro-3,5-dimethyl)phenoxy]-4H--1,2,6-thiadiazin-4-one], the “Spore Germination Rating” value in assay [1] (1.0 ppm), in assay [1] (2.5 ppm), in assay [1] (10 ppm), in assay [1] (40 ppm), in assay [2] (1.0 ppm) and in assay [2] (2.5 ppm) was 4 (80-100) each time. Besides, the entries for the “Spore Germination Rating” value in assay [2] (10 ppm) and in assay [2] (40 ppm) were 4 (80-100) and 3 (60-80), respectively.

For `Cc1cc(Oc2nsnc(Cl)c2=O)cc(C)c1Br` [Compound 60, 3-[(4-bromo-3,5-dimethyl)-phenoxy]-5-chloro-4H--1,2,6-thiadiazin-4-one], the “Spore Germination Rating” value in assay [1] (1.0 ppm) is recorded as 4 (80-100); in assay [1] (2.5 ppm), 4 (80-100); in assay [1] (10 ppm), 4 (80-100); in assay [1] (40 ppm) it was 3 (60-80); in assay [2] (1.0 ppm), 4 (80-100); in assay [2] (2.5 ppm), 3 (60-80). The “Spore Germination Rating” value in assay [2] (10 ppm) and in assay [2] (40 ppm) was 3 (60-80) in each case.

Turning to `COc1cc(Oc2nsnc(Cl)c2=O)cc(OC)c1C(C)=O` [Compound 61, 3-[(4-acetyl-3,5-dimethoxy)-phenoxy]-5-chloro-4H--1,2,6-thiadiazin-4-one], the “Spore Germination Rating” value is reported as 4 (80-100) in assay [1] (1.0 ppm); 3 (60-80) in assay [1] (2.5 ppm); 2 (40-60) in assay [1] (10 ppm); 2 (40-60) in assay [1] (40 ppm); 4 (80-100) in assay [2] (1.0 ppm); 4 (80-100) in assay [2] (2.5 ppm). Moreover, the entries for the “Spore Germination Rating” value in assay [2] (10 ppm) and in assay [2] (40 ppm) were 3 (60-80) and 2 (40-60), respectively.

Source of the values: US4450269A, “Mono-5-substituted-3-chloro-4H-1,2,6-thiadiazin-4-one antifungal agents” (FMC Corporation, priority 1980, dated 1984).
